These are literature values, as cited in publication PMC2981028 (Cancer research, 2010).

Structures are written as SMILES.

Usually IC50 stands for the concentration that gives 50% inhibition.

One data set deals with insulin receptor (IR) (Homo sapiens, UniProt P06213). The data set is described as follows: inhibition of IR phosphorylation in vitro. The data set is classed as cell-based.
For data set [1], the target named is type 1 insulin-like growth factor receptor (IGF-1R) (Homo sapiens, UniProt P08069). The data set is described as follows: inhibition of IGF-1R phosphorylation in vitro. The format is cell-based.
Chain of type 1 insulin-like growth factor receptor (IGF-1R) (P08069 31-736): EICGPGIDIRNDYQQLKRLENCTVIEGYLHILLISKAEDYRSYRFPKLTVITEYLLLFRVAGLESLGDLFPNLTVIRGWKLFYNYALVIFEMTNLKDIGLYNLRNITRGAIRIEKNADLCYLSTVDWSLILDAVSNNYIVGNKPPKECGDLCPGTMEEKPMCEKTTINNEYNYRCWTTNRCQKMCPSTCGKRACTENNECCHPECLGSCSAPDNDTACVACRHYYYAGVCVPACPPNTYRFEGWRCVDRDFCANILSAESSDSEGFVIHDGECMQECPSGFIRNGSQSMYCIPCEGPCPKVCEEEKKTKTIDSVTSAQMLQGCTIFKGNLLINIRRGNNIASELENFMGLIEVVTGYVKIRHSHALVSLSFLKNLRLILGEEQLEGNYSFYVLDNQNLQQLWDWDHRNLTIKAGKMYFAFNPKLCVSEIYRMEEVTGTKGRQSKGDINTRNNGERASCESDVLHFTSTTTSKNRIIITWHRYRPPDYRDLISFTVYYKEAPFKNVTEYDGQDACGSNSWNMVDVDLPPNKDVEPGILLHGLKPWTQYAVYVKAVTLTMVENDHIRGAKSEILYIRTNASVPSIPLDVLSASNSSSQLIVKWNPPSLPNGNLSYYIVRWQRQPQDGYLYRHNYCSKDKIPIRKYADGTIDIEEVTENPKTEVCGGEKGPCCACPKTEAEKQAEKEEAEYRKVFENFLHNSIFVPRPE
Chain of type 1 insulin-like growth factor receptor (IGF-1R) (P08069 741-1367): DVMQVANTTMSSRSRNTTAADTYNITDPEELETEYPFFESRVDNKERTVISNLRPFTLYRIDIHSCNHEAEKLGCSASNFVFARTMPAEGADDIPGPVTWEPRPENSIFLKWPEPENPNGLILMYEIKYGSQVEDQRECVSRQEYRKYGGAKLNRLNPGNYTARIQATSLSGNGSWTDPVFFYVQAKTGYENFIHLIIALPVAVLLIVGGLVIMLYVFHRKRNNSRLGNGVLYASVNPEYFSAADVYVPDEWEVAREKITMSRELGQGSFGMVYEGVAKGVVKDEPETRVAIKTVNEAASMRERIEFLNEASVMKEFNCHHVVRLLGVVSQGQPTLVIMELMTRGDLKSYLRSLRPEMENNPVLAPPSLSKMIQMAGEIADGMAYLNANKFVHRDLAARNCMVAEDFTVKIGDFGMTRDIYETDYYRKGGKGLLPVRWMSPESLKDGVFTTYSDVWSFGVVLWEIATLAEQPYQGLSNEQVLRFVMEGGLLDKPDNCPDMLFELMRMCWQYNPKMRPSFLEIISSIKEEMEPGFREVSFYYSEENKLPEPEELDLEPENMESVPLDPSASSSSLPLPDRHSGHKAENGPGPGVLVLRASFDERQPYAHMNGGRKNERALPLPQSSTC

Chain of insulin receptor (IR) (P06213 28-758): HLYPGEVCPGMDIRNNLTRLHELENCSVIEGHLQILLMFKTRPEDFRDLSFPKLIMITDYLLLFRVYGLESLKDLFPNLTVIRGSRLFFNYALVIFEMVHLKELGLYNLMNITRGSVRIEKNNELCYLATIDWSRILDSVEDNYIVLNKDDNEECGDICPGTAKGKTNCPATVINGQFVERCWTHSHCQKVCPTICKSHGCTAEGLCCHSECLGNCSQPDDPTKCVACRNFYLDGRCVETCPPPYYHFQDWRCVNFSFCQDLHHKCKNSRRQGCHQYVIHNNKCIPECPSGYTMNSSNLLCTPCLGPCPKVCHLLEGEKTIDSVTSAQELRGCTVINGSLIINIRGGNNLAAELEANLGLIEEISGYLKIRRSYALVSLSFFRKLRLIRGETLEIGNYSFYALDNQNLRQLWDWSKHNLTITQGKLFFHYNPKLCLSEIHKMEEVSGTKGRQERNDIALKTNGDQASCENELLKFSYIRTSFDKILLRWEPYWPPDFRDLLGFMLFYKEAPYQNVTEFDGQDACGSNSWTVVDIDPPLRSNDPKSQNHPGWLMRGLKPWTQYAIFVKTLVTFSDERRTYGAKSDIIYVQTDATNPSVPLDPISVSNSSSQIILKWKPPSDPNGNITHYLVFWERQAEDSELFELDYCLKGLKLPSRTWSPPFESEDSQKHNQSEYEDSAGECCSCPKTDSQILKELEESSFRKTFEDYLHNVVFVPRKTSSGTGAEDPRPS
Chain of insulin receptor (IR) (P06213 763-1382): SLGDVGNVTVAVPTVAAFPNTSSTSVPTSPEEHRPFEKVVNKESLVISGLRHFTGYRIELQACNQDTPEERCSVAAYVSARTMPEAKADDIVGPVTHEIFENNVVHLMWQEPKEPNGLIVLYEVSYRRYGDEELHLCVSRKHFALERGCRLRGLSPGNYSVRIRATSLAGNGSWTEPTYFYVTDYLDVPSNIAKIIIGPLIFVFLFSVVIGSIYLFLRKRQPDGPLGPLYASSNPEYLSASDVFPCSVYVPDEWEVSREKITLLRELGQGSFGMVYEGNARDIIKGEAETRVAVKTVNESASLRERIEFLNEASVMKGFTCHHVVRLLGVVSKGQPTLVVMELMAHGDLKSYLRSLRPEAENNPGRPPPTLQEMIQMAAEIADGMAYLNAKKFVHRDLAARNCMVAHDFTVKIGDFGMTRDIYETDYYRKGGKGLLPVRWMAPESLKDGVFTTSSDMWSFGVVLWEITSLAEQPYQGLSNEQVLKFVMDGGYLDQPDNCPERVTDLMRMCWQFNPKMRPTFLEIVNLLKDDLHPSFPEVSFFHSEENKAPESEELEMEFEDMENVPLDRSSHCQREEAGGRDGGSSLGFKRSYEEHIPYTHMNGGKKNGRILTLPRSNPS

As to `Cc1cc(Nc2cc(C)[nH]n2)nc(N2CCC[C@H]2c2cc(-c3ccccn3)no2)n1` [AZ12253801], the IC50 at insulin receptor (IR) is 19 nM; in data set [1], 2.1 nM.
